Results as given in patent US20240415859A1, “USE OF ISORHOIFOLIN AND DERIVATIVE THEREOF IN PROMOTING NERVE REPAIR” (priority 2021, published 2024).

Experiments:
hippocampal neurons = test: In vitro neural repair assay, injured hippocampal neurons (gap closure rate); assay type: cell-based; conditions: E18 rat hippocampal neurons, 72 hours
Experimental: The experimental procedure is as depicted in FIG. 1. Removed the brain of E18 rat embryos and dissected into cortex and hippocampus. Subsequently, the cortex and hippocampus were separated into cortical neurons and hippocampal neurons, respectively. Then, seeded hippocampal neurons on 48-well plates. The first day that neurons are cultured in vitro is defined as day in vitro 0 (DIV0). On DIV2, Cytosine beta-D-arabinoside (AraC) was added to neurons to inhibit the proliferation of glial cells. On DIV8, neurons were injured using pipette tips (p10 tips) and various concentrations of Isorhoifolin was added. After 72 hours, immunostaining was performed. TUJ1 antibody was used to label neuronal cells to observe the regrowth of neurites. Images were taken using Observer Z1 microscope. As depicted in FIG. 2, the degree of neuronal axon regeneration was quantified using the gap closure rate. White dashed lines indicate the borders of injury gap, the central black area represents the region scratched by the tip of a pipette tips. The newly regenerated neurites grow from the white dashed lines toward the center of the gap. To quantify the results, we measured the lengths of gap (Lg) and distance between regenerated neurites (Ln) every 50 μm. […] Gap closure rate is calculated using the formula: (Lg−Ln)/Lg. […]

injured brain sections = test: Ex vivo 3D brain tissue slice culture, scalpel injury; assay type: cell-based; conditions: E18 rat brain slices 350 μm, added every day, 96 hours, vs ddH2O
Source text: For the experiment, we took out the brain of E18 rat embryos and embedded in low-melting agarose. The brains were sectioned using Leica microtome VT100. The tissue sections were collected with 350 μm thick and injured using a scalpel. And placed them in inserts within a 6-well plate. This culturing method allows the brain slices to be exposed to both medium and air, facilitating a more realistic representation of the interactions between neuronal cells and other brain cells, as well as the three-dimensional structure, compared to in vitro culture. ddH2O or Isorhoifolin was added to injured brain sections every day. After 96 hours, immunostaining was performed. TUJ1 antibody was used to label neuron cells. GFAP antibody was used to label glial cells. DAPI was used to label nucleus. The experimental procedure for the Isorhoifolin derivative Narirutin is also depicted in FIG. 6. Took out the brain of E18 rat embryos and embedded in low-melting agarose. The brains were sectioned using Leica microtome VT100. The tissue sections were collected with 350 μm thick and injured using a scalpel. And placed them in inserts within a 6-well plate. […]

Neuro2a cells = test: CellTiter-Glo cell viability assay (cytotoxicity); assay type: cell-based
Source text: Utilizing the CellTiter-Glo cell viability assay to assess the toxicity of Isorhoifolin on Neuro2a cells. CellTiter-Glo cell viability assay can detect the level of ATP in neuro2a cells after treatment of compounds to evaluate the survival rate.

[1] = test system: motor coordination after brain injury; test: Controlled cortical impact (CCI) brain injury model, horizontal bar test; assay type: in vivo; conditions: mice, 14 or 140 μg/kg intranasal at 0, 2, 4, 6, 8, 10, 12 Dpi, tested 1, 3, 6, 10, 13 Dpi, vs ddH2O and Sham
Experimental: Using the horizontal bar test, mice were placed on brass rods positioned at a height of 49 cm above the ground, with lengths of 38 cm and diameters of 2 mm, 4 mm, and 6 mm. Mice were required to grasp the brass rod with their forepaws, and their ability to move and coordinate was assessed by measuring the time spent on the brass rod and whether they reached the platform at the end of the rod. Evaluation criteria were as follows: 1 point for 1-5 seconds, 2 points for 5-10 seconds, 3 points for 10-20 seconds, 4 points for 20-30 seconds, and 5 points for over 30 seconds or reaching the platform. The experimental model, as depicted in FIG. 10, involved pre-training at −5, −3, and −1 days post injury (Dpi) (5, 3, and 1 day(s) before brain injury). At 0 Dpi, the controlled cortical impact model (CCI model) was used to induce brain injury in mice. Subsequently, at 0, 2, 4, 6, 8, 10, and 12 Dpi, mice were administered Isorhoifolin at doses of 14 or 140 μg/kg via intranasal delivery. Horizontal bar experiments were conducted at 1, 3, 6, 10, and 13 Dpi.

retinal explants = test: Ex vivo retinal explant neuronal tissue repair; assay type: cell-based, C57BL/6 mice; conditions: P8 mouse retinal explants, 9 μM or 90 μM, five days, vs ddH2O
Experimental: Retinal explants were obtained from C57BL/6 mice at postnatal day 8. Following the sacrifice of mice, the eyes were enucleated, and the eyeballs were dissected using forceps and microscissors to separate the retina and remove the vitreous. Subsequently, the dissected retinas were quartered and trimmed along the edges of the tissue using microscissors. Each quarter was cultured on an 18 mm round coverslip and placed in a 12-well plate inside a CO2 incubator at 35° C. for five days. The culture medium was replaced daily with fresh medium containing either 9 μM or 90 μM Isorhoifolin. On the fifth day of culture, the retinal tissues were fixed with a mixture of 0.1% glutaraldehyde solution and 4% paraformaldehyde at room temperature for one hour. Immunostaining was performed using primary antibodies against the axonal marker beta-III-tubulin (TUJ1) and DAPI to label neurons and cell nuclei, respectively. Images were acquired using a super-resolution upright confocal microscope (LSM-800, Carl Zeiss). ImageJ software was utilized for image analysis, wherein the tissue boundary was delineated to calculate the perimeter and the area of neuronal fibers outside the tissue boundary. The ratio of neuronal fiber area to tissue boundary perimeter was then calculated to determine the unit perimeter neuronal fiber length.

cortical neurons = test: In vitro neural repair assay, injured cortical neurons (gap closure rate); assay type: cell-based; conditions: E18 rat cortical neurons, injured DIV8, 10 nM and 100 nM, 72 hours, standardized against 0.1% DMSO
Source text: As depicted in FIG. 2, the degree of neuronal axon regeneration was quantified using the gap closure rate. White dashed lines indicate the borders of injury gap, the central black area represents the region scratched by the tip of a pipette tips. The newly regenerated neurites grow from the white dashed lines toward the center of the gap. To quantify the results, we measured the lengths of gap (Lg) and distance between regenerated neurites (Ln) every 50 μm. After unbiasedly drawing ten lines of equal distance, the average distance between neurites is taken: Length of gap between regenerated neurons (Ln). Gap closure rate is calculated using the formula: (Lg−Ln)/Lg. Scale bar=100 μm. Images were taken using Observer Z1 microscope. The experimental procedure is also as depicted in FIG. 1. Removed the brain of E18 rat embryos and dissected into cortex and hippocampus. Subsequently, the cortex and hippocampus were separated into cortical neurons and hippocampal neurons, respectively. Then, seeded cortical neurons on 48-well plates. The first day that neurons are cultured in vitro is defined as day in vitro 0 (DIV0). On DIV2, Cytosine beta-D-arabinoside (AraC) was added to neurons to inhibit the proliferation of glial cells. On DIV8, neurons were injured using pipette tips (p10 tips) and 10 nM and 100 nM Narirutin was added. […]

| Compound | neurite regrowth after injury (gap closure rate) (hippocampal neurons; injured DIV8, various concentrations, TUJ1 staining) | neurite outgrowth after injury in ex vivo 3D brain slice culture (injured brain sections) | toxicity towards Neuro2a cells (Neuro2a cells) | IC50 (Neuro2a cells; Mus musculus, N2a, CellTiter-Glo, read-out: IC50 (cell viability, ATP level)) [mM] | motor coordination recovery (horizontal bar test score) [1] | recovery of injured retinal neurons (unit perimeter neuronal fiber length) (retinal explants) | neurite regeneration after injury (gap closure rate) (hippocampal neurons; injured DIV8, 1 nM and 10 nM, standardized against 0.1% DMSO) | neurite regeneration after injury (gap closure rate) (cortical neurons) |
| --- | --- | --- | --- | --- | --- | --- | --- | --- |
| C[C@@H]1O[C@@H](OC[C@H]2O[C@@H](Oc3cc(O)c4c(=O)cc(-c5ccc(O)cc5)oc4c3)[C@H](O)[C@@H](O)[C@@H]2O)[C@H](O)[C@H](O)[C@H]1O [Isorhoifolin] | promotes neurite regrowth after injury in hippocampal neurons | promotes neurite outgrowth after injury in ex vivo 3D brain slice culture | low toxicity | ~11.6 | motor coordination was similar to that of the Sham (surgery control) group | significant recovery of injured retinal neurons | – | – |
| Narirutin | – | promotes neurite outgrowth after injury in ex vivo 3D brain slice culture | – | – | – | – | effectively promotes dendritic outgrowth in hippocampal neurons | effectively promotes dendritic outgrowth in cortical neurons |
